Reference: ChEMBL document CHEMBL5550215, “Discovery of Novel Imidazo[1,2-a]pyridine-Based HDAC6 Inhibitors as an Anticarcinogen with a Cardioprotective Effect” (J Med Chem, 2024)
The source made the active and inactive calls. No cut-off for these calls is given here.

Assays:
MGC-803 [1] = experiment: Antiproliferative activity against human MGC-803 cells assessed as inhibition of cell growth by MTT assay
PANC-1 = experiment: Antiproliferative activity against human PANC-1 cells assessed as inhibition of cell growth by MTT assay
MKN-45 = experiment: Antiproliferative activity against human MKN-45 cells assessed as inhibition of cell growth by MTT assay
SGC-7901 = experiment: Antiproliferative activity against human SGC-7901 cells assessed as inhibition of cell growth by MTT assay
AGS = experiment: Antiproliferative activity against human AGS cells assessed as inhibition of cell growth by MTT assay
[2] = Half life in male Sprague-Dawley rat at 7 mg/kg,iv measured upto 8 hrs by UPLC-MS/MS analysis; assay type: ADME, organism-based; conditions: in vivo
Histone deacetylase 1 [3] = biological target: T1, Histone deacetylase 1 (Homo sapiens, UniProt Q13547); experiment: Inhibition of HDAC1 (unknown origin)
[4] = Observed apparent volume of distribution in male Sprague-Dawley rat at 7 mg/kg,iv measured upto 8 hrs by UPLC-MS/MS analysis; assay type: ADME, organism-based; conditions: in vivo, read-out: Vz
[5] = AUClast in male Sprague-Dawley rat at 7 mg/kg,po measured upto 8 hrs by UPLC-MS/MS analysis; assay type: ADME, organism-based; conditions: in vivo
[6] = AUC (0 to infinity) in male Sprague-Dawley rat at 7 mg/kg,po measured upto 8 hrs by UPLC-MS/MS analysis; assay type: ADME, organism-based; conditions: in vivo
[7] = Observed apparent volume of distribution in male Sprague-Dawley rat at 7 mg/kg,po measured upto 8 hrs by UPLC-MS/MS analysis; assay type: ADME, organism-based; conditions: in vivo
MGC-803 [8] = experiment: Antimetastatic activity in human MGC-803 cells; assay type: functional, cell-based; conditions: dose <= 2.0 µM
MGC-803 [9] = experiment: Induction of apoptosis in human MGC-803 cells assessed as increase in bax expression by Western blot analysis; assay type: functional, cell-based; conditions: dose <= 2.0 µM
Histone deacetylase 1 [10] = biological target: T1, Histone deacetylase 1; experiment: Induction of thermal stabilization of HDAC1 in human MGC-803 cells at 48 degree C st 20 uM incubated for 4 hrs by CETSA; assay type: cell-based
MGC-803 [11] = experiment: Antitumor activity against human MGC-803 cells xenografted in […] mouse model assessed as suppression of tumor volume at 25 to 50 mg/kg, ip measured upto 21 days with continuous administration for 5 days followed by two days break; assay type: functional, organism-based; conditions: dose 25-50 mg/kg, time <= 21.0 day
MGC-803 [12] = experiment: Antitumor activity against human MGC-803 cells xenografted in […] mouse model assessed as suppression of tumor mass at 25 to 50 mg/kg, ip measured upto 21 days with continuous administration for 5 days followed by two days break; assay type: functional, organism-based; conditions: dose 25-50 mg/kg, time <= 21.0 day
[13] = Toxicity in C57BL/6 mouse assessed as lesions in myocardial tissue at 25 to 50 mg/kg, ip by H and E staining based analysis; assay type: organism-based; conditions: in vivo, dose 25-50 mg/kg
[14] = Toxicity in C57BL/6 mouse assessed as cell necrosis at 25 to 50 mg/kg, ip by H and E staining based analysis; assay type: organism-based; conditions: in vivo, dose 25-50 mg/kg
[15] = Toxicity in C57BL/6 mouse assessed as appearance of inflammatory cell infiltration at 25 to 50 mg/kg, ip by H and E staining based analysis; assay type: organism-based; conditions: in vivo, dose 25-50 mg/kg
H9c2 [16] = experiment: Cardioprotective activity in H2O2 induced myocardial injury in rat H9c2 cells assessed as LDH release by absorbance based analysis; assay type: functional, cell-based; conditions: dose <= 8.0 µM
H9c2 [17] = experiment: Cardioprotective activity in H2O2 induced myocardial injury in rat H9c2 cells assessed as decrease in cell contraction at 2 to 8 uM; assay type: functional, cell-based; conditions: dose 2-8 µM
H9c2 [18] = experiment: Cardioprotective activity in H2O2 induced myocardial injury in rat H9c2 cells assessed as decrease in cell death at 2 to 8 uM; assay type: functional, cell-based; conditions: dose 2-8 µM
Mus musculus [19] = experiment: Cardioprotective activity against myocardial ischemia/reperfusion induced C57BL/6J mouse model assessed as reduction in ST-segment elevation at 2.5 to 10 mg/kg; assay type: functional, organism-based; conditions: dose 2.5-10 mg/kg
Mus musculus [20] = experiment: Cardioprotective activity against myocardial ischemia/reperfusion induced C57BL/6J mouse model assessed as effect on infarct size of mouse heart at 2.5 to 10 mg/kg by TTC staining based analysis; assay type: functional, organism-based; conditions: dose 2.5-10 mg/kg
Mus musculus [21] = experiment: Cardioprotective activity against myocardial ischemia/reperfusion induced C57BL/6J mouse model assessed as alleviation of leukocyte infiltration at 10 mg/kg by H and E staining based analysis; assay type: functional, organism-based
Mus musculus [22] = experiment: Cardioprotective activity against myocardial ischemia/reperfusion induced C57BL/6J mouse model assessed as reduction in IL-1 beta expression at 2.5 to 10 mg/kg; assay type: functional, organism-based; conditions: dose 2.5-10 mg/kg
H9c2 [23] = experiment: Cardioprotective activity against H2O2 induced myocardial damage in rat H9c2 cells harbouring Ad.GFP assessed as increase in cell viability at 8 uM by MTT assay; assay type: functional, cell-based
H9c2 [24] = experiment: Cardioprotective activity against H2O2 induced myocardial damage in rat H9c2 cells harbouring Ad.HDAC6 assessed as reversal of IL-18 expression at 8 uM; assay type: functional, cell-based

T1 sequence (Q13547 whole entry): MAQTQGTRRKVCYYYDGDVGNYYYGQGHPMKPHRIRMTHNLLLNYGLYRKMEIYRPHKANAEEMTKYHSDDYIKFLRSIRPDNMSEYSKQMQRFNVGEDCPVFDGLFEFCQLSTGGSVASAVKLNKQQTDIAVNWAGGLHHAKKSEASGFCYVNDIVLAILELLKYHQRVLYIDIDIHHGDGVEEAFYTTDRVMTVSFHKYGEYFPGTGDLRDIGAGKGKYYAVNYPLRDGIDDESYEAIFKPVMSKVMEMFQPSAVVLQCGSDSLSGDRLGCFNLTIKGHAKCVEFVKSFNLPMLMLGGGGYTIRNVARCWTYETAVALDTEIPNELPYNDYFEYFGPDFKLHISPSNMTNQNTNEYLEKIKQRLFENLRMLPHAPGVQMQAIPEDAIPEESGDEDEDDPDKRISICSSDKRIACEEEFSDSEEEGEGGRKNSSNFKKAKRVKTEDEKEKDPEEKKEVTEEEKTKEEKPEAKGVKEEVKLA

O=C(NO)c1ccc(CNC(=O)c2cc(-c3ccc(F)cc3)cn3ccnc23)cc1
IC50 (MGC-803 [1]): 0.95 µM
IC50 (PANC-1): 3.79 µM
IC50 (MKN-45): 7.43 µM
IC50 (SGC-7901): 8.34 µM
IC50 (AGS): > 10 µM
half-life [2]: 2.19 h
IC50 (Histone deacetylase 1 [3]): 0.0031 µM
Vd [4]: 25.5 L/kg
AUC(0-t) at 8 h [5]: 54.2 ng·h/mL
AUC(0-inf) [6]: 105 ng·h/mL
Vz [7]: 492.21671 L/kg
Activity (MGC-803 [8]): Dose-Dependent Effect
Activity (MGC-803 [9]): Dose-Dependent Effect
Activity (Histone deacetylase 1 [10]): inactive
Activity (MGC-803 [11]): Active
Activity (MGC-803 [12]): Active
Activity [13]: Non-Toxic
Activity [14]: Non-Toxic
Activity [15]: Non-Toxic
Activity (H9c2 [16]): Active
Activity (H9c2 [17]): Active
Activity (H9c2 [18]): Active
Activity (Mus musculus [19]): Active
Activity (Mus musculus [20]): inactive
Activity (Mus musculus [21]): Active
Activity (Mus musculus [22]): Active
Activity (H9c2 [23]): Active
Activity (H9c2 [24]): Active
